Tests used:
Type in all cases: in vivo, Zea mays
corn [1] = assay: BF 428-5 applied to corn at stage V8, Nova Mutum; methomyl and pyraclostrobin+epoxyconazole added in all treatments; conditions: for Increased Yield: 100,000 plants/ha vs control at normal density
Procedure: Example 5—Effect of Growth Regulator BF 428-5 Applied to Corn at the Stage of Development V8
(§1) In the moment of the application, the insecticide methomyl (215 g ha^−1 a.i.) and the fungicide pyraclostrobin+epoxyconazole (99.75+37.5 g ha^−1 a.i.) were added in all treatments, including the control.

corn [2] = assay: BF 428-5 applied to corn at stage V6, Nova Mutum; chlorantraniliprole and cyproconazole+azoxystrobin added in all treatments; conditions: for Height (shoot length): 30 DAA; for Increased Yield: 100,000 plants/ha vs control at normal density
Procedure: Example 6—Effect of Growth Regulator BF 428-5 Applied to Corn at the Stage of Development V6
(§2) In the moment of the application, the insecticide chlorantraniliprole (25 g ha^−1 a.i.) and the fungicide cyproconazole+azoxystrobin (24+60 g ha^−1 a.i.) were added in all treatments, including the control.

corn [3] = assay: Ethephon applied to corn at stage V8, Nova Mutum; methomyl and pyraclostrobin+epoxyconazole added in all treatments; conditions: V8, 5 g ha^−1 a.i.
Procedure: Example 1—Effect of Growth Regulator Ethephon Applied to Corn at the Stage of Development V8
as §1

corn [4] = assay: Ethephon applied to corn at stage V6, Nova Mutum; chlorantraniliprole and cyproconazole+azoxystrobin added in all treatments; conditions: V6, 5 g ha^−1 a.i.
Procedure: Example 2—Effect of Growth Regulator Ethephon Applied to Corn at the Stage of Development V6
as §2

SMILES: C[N+](C)(C)CCCl [BF 428-05, chlormequat chloride]
- effects on the corn plant (corn [1]; V8): reduction in shoot length, increased formation of adventitious roots, strengthening of the stem, strengthening of the root system, increased ventilation in the culture, proper development of male and female inflorescences
- effect on length and diameter of ears of corn (corn [1]; V8 (Table 9)): does not reduce
- yield reduction (corn [1]; V8 (Table 9)): no yield reduction
- shoot length (corn [1]; V8, 30 DAA, all treatments with BF 428-5 (Table 9)): less than or equal to 218.8 cm
- Ear Diameter (corn [1]; V8, 42.5 g ha^−1 a.i.): 54.3 mm
- Ear Length (corn [1]; V8, 42.5 g ha^−1 a.i.): 27.8 cm
- Yield (corn [1]; V8, 42.5 g ha^−1 a.i.): 5762.2 kg/ha
- Height (shoot length) (corn [1]; V8, 42.5 g ha^−1 a.i., 30 DAA): 214.6 cm
- Population of corn plants 60,000 plants/ha, kg/corn plant (corn [1]; V8, 42.5 g ha^−1 a.i.): 0.096 kg/corn plant
- Population of corn plants 100,000 plants/ha, kg/corn plant (corn [1]; V8, 42.5 g ha^−1 a.i.): 0.096 kg/corn plant
- Yield estimates 100,000 plants/ha (corn [1]; V8, 42.5 g ha^−1 a.i.): 9603.7 kg/ha
- Increased Yield (corn [1]; V8, 42.5 g ha^−1 a.i.): 89.2%
- Ear Diameter (corn [1]; V8, 85 g ha^−1 a.i.): 53.9 mm
- Ear Length (corn [1]; V8, 85 g ha^−1 a.i.): 27.3 cm
- Yield (corn [1]; V8, 85 g ha^−1 a.i.): 4355.6 kg/ha
- Height (shoot length) (corn [1]; V8, 85 g ha^−1 a.i., 30 DAA): 218.8 cm
- Population of corn plants 60,000 plants/ha, kg/corn plant (corn [1]; V8, 85 g ha^−1 a.i.): 0.073 kg/corn plant
- Population of corn plants 100,000 plants/ha, kg/corn plant (corn [1]; V8, 85 g ha^−1 a.i.): 0.073 kg/corn plant
- Yield estimates 100,000 plants/ha (corn [1]; V8, 85 g ha^−1 a.i.): 7259.3 kg/ha
- Increased Yield (corn [1]; V8, 85 g ha^−1 a.i.): 43.0%
- Ear Diameter (corn [1]; V8, 127.5 g ha^−1 a.i.): 54.2 mm
- Ear Length (corn [1]; V8, 127.5 g ha^−1 a.i.): 27.2 cm
- Yield (corn [1]; V8, 127.5 g ha^−1 a.i.): 4968.9 kg/ha
- Height (shoot length) (corn [1]; V8, 127.5 g ha^−1 a.i., 30 DAA): 217.8 cm
- Population of corn plants 60,000 plants/ha, kg/corn plant (corn [1]; V8, 127.5 g ha^−1 a.i.): 0.083 kg/corn plant
- Population of corn plants 100,000 plants/ha, kg/corn plant (corn [1]; V8, 127.5 g ha^−1 a.i.): 0.083 kg/corn plant
- Yield estimates 100,000 plants/ha (corn [1]; V8, 127.5 g ha^−1 a.i.): 8281.5 kg/ha
- Increased Yield (corn [1]; V8, 127.5 g ha^−1 a.i.): 63.2%
- yield increases (corn [1]; V8, estimation at 100,000 plants per hectare vs control at normal density of sowing (Table 10)): more than 43%
- effects on the corn plant (corn [2]; V6): reduction in shoot length, increased formation of adventitious roots, strengthening of the stem, strengthening of the root system, increased ventilation in the culture, proper development of male and female inflorescences
- effect on length and diameter of ears of corn (corn [2]; V6 (Table 11)): does not reduce
- yield reduction (corn [2]; V6 (Table 11)): no yield reduction
- Ear Diameter (corn [2]; V6, 42.5 g ha^−1 a.i.): 38.4 mm
- Ear Length (corn [2]; V6, 42.5 g ha^−1 a.i.): 23.9 cm
- Yield (corn [2]; V6, 42.5 g ha^−1 a.i.): 3126.7 kg/ha
- Height (shoot length) (corn [2]; V6, 42.5 g ha^−1 a.i.): 206.0 cm
- Population of corn plants 60,000 plants/ha, kg/corn plant (corn [2]; V6, 42.5 g ha^−1 a.i.): 0.052 kg/corn plant
- Population of corn plants 100,000 plants/ha, kg/corn plant (corn [2]; V6, 42.5 g ha^−1 a.i.): 0.052 kg/corn plant
- Yield estimates 100,000 plants/ha (corn [2]; V6, 42.5 g ha^−1 a.i.): 5211.2 kg/ha
- Increased Yield (corn [2]; V6, 42.5 g ha^−1 a.i.): 80.5%
- Ear Diameter (corn [2]; V6, 85 g ha^−1 a.i.): 37.0 mm
- Ear Length (corn [2]; V6, 85 g ha^−1 a.i.): 22.9 cm
- Yield (corn [2]; V6, 85 g ha^−1 a.i.): 1902.2 kg/ha
- Height (shoot length) (corn [2]; V6, 85 g ha^−1 a.i.): 205.8 cm
- Population of corn plants 60,000 plants/ha, kg/corn plant (corn [2]; V6, 85 g ha^−1 a.i.): 0.032 kg/corn plant
- Population of corn plants 100,000 plants/ha, kg/corn plant (corn [2]; V6, 85 g ha^−1 a.i.): 0.032 kg/corn plant
- Yield estimates 100,000 plants/ha (corn [2]; V6, 85 g ha^−1 a.i.): 3170.3 kg/ha
- Increased Yield (corn [2]; V6, 85 g ha^−1 a.i.): 9.8%
- Ear Diameter (corn [2]; V6, 127.5 g ha^−1 a.i.): 37.9 mm
- Ear Length (corn [2]; V6, 127.5 g ha^−1 a.i.): 21.5 cm
- Yield (corn [2]; V6, 127.5 g ha^−1 a.i.): 2500.0 kg/ha
- Height (shoot length) (corn [2]; V6, 127.5 g ha^−1 a.i.): 200.3 cm
- Population of corn plants 60,000 plants/ha, kg/corn plant (corn [2]; V6, 127.5 g ha^−1 a.i.): 0.042 kg/corn plant
- Population of corn plants 100,000 plants/ha, kg/corn plant (corn [2]; V6, 127.5 g ha^−1 a.i.): 0.042 kg/corn plant
- Yield estimates 100,000 plants/ha (corn [2]; V6, 127.5 g ha^−1 a.i.): 4166.7 kg/ha
- Increased Yield (corn [2]; V6, 127.5 g ha^−1 a.i.): 44.3%
- yield increases (corn [2]; V6, estimation at 100,000 plants per hectare vs control at normal density of sowing (Table 12)): more than 9.8%

SMILES: CSC(=O)c1cccc2nnsc12 [Acybenzolar-S-methyl, acybenzolar-S-methyl]
- Ear Diameter (corn [3]): 53.7 mm
- Ear Length (corn [3]): 26.5 cm
- Yield (corn [3]): 4815.6 kg/ha
- Height (shoot length) (corn [3]; 30 DAA): 206.8 cm
- Population of corn plants 60,000 plants/ha, kg/corn plant (corn [3]; 60,000 plants/ha): 0.080 kg/corn plant
- Ear Diameter (corn [4]): 34.7 mm
- Ear Length (corn [4]): 21.9 cm
- Yield (corn [4]): 2662.2 kg/ha
- Height (shoot length) (corn [4]; 30 DAA): 195.2 cm
- Population of corn plants 60,000 plants/ha, kg/corn plant (corn [4]; 60,000 plants/ha): 0.044 kg/corn plant
